From patent US10941115B2, “Kinase inhibitors” (Oxular Acquisitions Limited, priority 2014, dated 2021)
Counter-ions that a name gives are not always drawn. Like-named read-outs stand apart in the source and are kept apart here.

Experiments:
[1] = Stability of pharmaceutical formulations (1 mg/mL solutions); format: physicochemical; conditions: for Purity (%) at week n = 1: week 1; for Purity (%) at week n = 4: week 4
Protocol: The samples were sonicated to achieve clear solutions having the following properties: Osmolality (mOsm/kg): 310 (Na), 314 (HCl); pH: 7.00 (Na), 7.05 (HCl). 0.5 mL of the stock solutions were diluted to 1 mL with 20% DMSO in water & injected for purity analysis by HPLC. The remaining stock solutions were then split into aliquots of 0.5 mL in HPLC vials, and stored at various conditions in duplicate. Samples were stored at 5 and 25° C., before being analysed by HPLC at 1, 2 and 4 weeks. Separate samples were stored at 40° C. and analysed at 4 weeks.

[2] = Hydrolytic stability study in DMSO/water (3:1) at 60 °C; format: physicochemical; conditions: DMSO/water 3:1, 1 mg/mL, result in words
Protocol: Flow rate 2.5 mL/min. Column Oven Temperature 40° C. […] The peak area for the test compound was recorded following manual integration of the corresponding UV trace. • The test solution was heated to 60° C., with stirring, and 50 μL aliquots removed for HPLC analysis at 5 and 24 h timepoints.

non-mutant kinases = format: binding; conditions: for KinomeScan Selectivity Score S(1): fraction of non-mutant kinases with % Ctrl <1; for KinomeScan Selectivity Score S(10): fraction of non-mutant kinases with % Ctrl <10
Text: These assays may be conducted by DiscoverX (formerly Ambit; San Diego, Calif.).

[3] = 0.1 and 1.0 mg/mL, four daily ocular instillations, rabbits
[4] = system: Escherichia coli WP2 uvrA; test: Bacterial reverse mutation screen (plate incorporation, ±S-9); conditions: for mutagenic effects (revertant numbers): presence and absence of S-9 mix
LPS-stimulated rats = test: Endotoxin-induced uveitis in rats (assay vi); format: in vivo, Lewis rats; conditions: rats treated with intravitreal LPS, result in words
Protocol: Male, Lewis rats (6-8 weeks old, Charles River UK Limited) are housed in cages of 3 at 19-21° C. with a 12 h light/dark cycle (07:00/19:00) and fed a standard diet of rodent chow and water ad libitum. Non-fasted rats are weighed, individually identified on the tail with a permanent marker, and receive a single intravitreal administration into the right vitreous humor (5 μL dose volume) of 100 ng/animal of LPS (Escherichia coli 0111:B4 prepared in PBS, Sigma Aldrich, UK) using a 32-gauge needle. Untreated rats are injected with PBS. Test compound or vehicle (4% polyoxyl 40 stearate, 4% mannitol in PBS (pH 7.4)) are administered by the topical route onto the right eye (10 μL) of animals 1 hour prior to LPS, at the time of LPS administration, and 1, 2 and 4 hours post LPS administration. Before administration, the solution to be administered is sonicated to ensure a clear solution. 6 hours after LPS dosing, animals are euthanized by overdose with pentobarbitone (via cardiac puncture). Immediately after euthanasia, 10 μL of aqueous humor is collected from the right eye of the rats by puncture of the anterior chamber using a 32 gauge needle under a surgical microscope. The aqueous humor is diluted in 20 μL of PBS and total cell counts are measured immediately using a Countess automated cell counter (Invitrogen). […]

[5] = system: Salmonella typhimurium strains TA1535, TA1537, TA98 and TA100; test: Bacterial reverse mutation screen (plate incorporation, ±S-9); conditions: for mutagenic effects (revertant numbers): TA1535, TA1537, TA98, TA100, presence and absence of S-9 mix; for toxicity to the bacteria (mean colony count): at the highest doses (500-5000 μg/plate), some strains

## COc1cc(Nc2cc(Oc3ccc(NC(=O)Nc4cc(C(C)(C)C)cc(NS(C)(=O)=O)c4OC)c4ccccc34)ccn2)ccc1C(=O)O.Cl [Example 1, hydrochloride salt]
[1]; 1 mg/mL solution, Sample 1, 25° C.
  Purity (%) at week n = 1: 98.0%
[1]; 1 mg/mL solution, Sample 2, 5° C., week 2
  Purity (%) at week n = 2: 98.0%
[1]; 1 mg/mL solution, Sample 2, 5° C.
  Purity (%) at week n = 4: 98.0%
[1]; 1 mg/mL solution, Sample 2, 25° C.
  Purity (%) at week n = 1: 98.0%

## C#Cc1cc(Nc2nccc(Oc3ccc(NC(=O)Nc4cc(C(C)C)nn4-c4ccc(C)cc4)c4ccccc34)n2)cc(C(=O)NCCN2CCOCC2)c1 [Reference Compound B, 3-ethynyl-5-((4-((4-(3-(3-isopropyl-1-(p-tolyl)-1H-pyrazol-5-yl)ureido)naphthalen-1-yl)oxy)pyrimidin-2-yl)amino)-N-(2-morpholinoethyl)benzamide]
[2]
  decomposition under the conditions of the hydrolytic stability study: underwent substantial decomposition

## COc1cc(Nc2cc(Oc3ccc(NC(=O)Nc4cc(C(C)(C)C)cc(NS(C)(=O)=O)c4OC)c4ccccc34)ccn2)ccc1C(=O)O [Example 1, sodium salt]
[1]; 1 mg/mL solution, Sample 1, 40° C.
  Purity (%) at week n = 4: 76.0%

## COc1cc(Nc2cc(Oc3ccc(NC(=O)Nc4cc(C(C)(C)C)cc(NS(C)(=O)=O)c4OC)c4ccccc34)ccn2)cc(OC)c1C(=O)NCCOCCOCCO [Example 36, 4-((4-((4-(3-(5-(tert-butyl)-2-methoxy-3-(methylsulfonamido)phenyl)ureido)naphthalen-1-yl)oxy)pyridin-2-yl)amino)-N-(2-(2-(2-hydroxyethoxy)ethoxy)ethyl)-2,6-dimethoxybenzamide]
non-mutant kinases; 50 nM
  KinomeScan Selectivity Score S(1): 0.002
  KinomeScan Selectivity Score S(10): 0.050
non-mutant kinases; 500 nM
  KinomeScan Selectivity Score S(1): 0.079

## COc1cc(Nc2cc(Oc3ccc(NC(=O)Nc4cc(C(C)(C)C)cc(NS(C)(=O)=O)c4OC)c4ccccc34)ccn2)ccc1C(=O)O [Example 1, 4-((4-((4-(3-(5-(tert-Butyl)-2-methoxy-3-(methylsulfonamido)phenyl)ureido)naphthalen-1-yl)oxy)pyridin-2-yl)amino)-2-methoxybenzoic acid]
[3]; Phase 1: one treatment day
  local tolerability of the formulations: acceptable after a single dosing day
  ocular reactions compared with vehicle controls: no differences in the frequency, severity and incidence between the Example 1-treated animals and the vehicle controls
[3]; Phase 2: three consecutive treatment days
  local tolerability of the formulations: acceptable without any aggravation for the 3 treatment days
[4]
  mutagenic effects (revertant numbers): absence of any mutagenic effects
LPS-stimulated rats
  cellular infiltration (cell counts) in the eyes: significantly and dose-dependently reduced cellular infiltration
  cytokine IL-1β levels in anterior and posterior segments of the eyes: significantly and dose-dependently reduced
[5]
  mutagenic effects (revertant numbers): absence of any mutagenic effects
  toxicity to the bacteria (mean colony count): reduction in the mean colony count
[1]; 1 mg/mL Na and HCl salts in pH 7.2 phosphate buffer, 4.5% mannitol, 3% polyoxyl 40 stearate
  stability in solution: stable in solution at 5 °C

## COc1cc(Nc2cc(Oc3ccc(NC(=O)Nc4cc(C(C)(C)C)cc(NS(C)(=O)=O)c4OC)c4ccccc34)ccn2)ccc1P(C)(=O)O [Example 44, (4-((4-((4-(3-(5-(tert-Butyl)-2-methoxy-3-(methylsulfonamido)phenyl)ureido)naphthalen-1-yl)oxy)pyridin-2-yl)amino)-2-methoxyphenyl)(methyl)phosphinic acid]
[4]; 5000 μg/plate, absence of S-9 mix
  toxicity to the bacteria (mean colony count): reduction in the mean colony count
[4]
  mutagenic effects (revertant numbers): absence of any mutagenic effects
[5]
  mutagenic effects (revertant numbers): absence of any mutagenic effects
  toxicity to the bacteria (mean colony count): reduction in the mean colony count

## COc1cc(Nc2cc(Oc3ccc(NC(=O)Nc4cc(C(C)(C)C)cc(NS(C)(=O)=O)c4OC)c4ccccc34)ccn2)cc(OC)c1C(=O)NCCOCCOCCOP(=O)(O)O [Example 47, 2-(2-(2-(4-((4-((4-(3-(5-(tert-butyl)-2-methoxy-3-(methylsulfonamido)phenyl)ureido)-naphthalen-1-yl)oxy)pyridin-2-yl)amino)-2,6-dimethoxybenzamido)ethoxy)ethoxy)ethyl dihydrogen phosphate]
non-mutant kinases; 50 nM
  KinomeScan Selectivity Score S(10): 0.042
non-mutant kinases; 500 nM
  KinomeScan Selectivity Score S(1): 0.074
